Test results reported in patent publication US6914045B2, “Glycopeptide antibiotics” (Wyeth Holdings Corporation, priority 2001, dated 2005).
Converted amounts (≈) assume the structure as drawn. Blank lines part the entries; values can stand above or below the compound they belong to. Numbered stars: 1 amine (or outer) side, 2 acyl side, 3 side chain; on linkers, the order of the positions; unused ones are H or OH. Square brackets hold non-standard residues; d marks the D form. Peptide text beside a SMILES is read from it. ξ: configuration not given here. X1 = N=C1NCC(C(O)C(N[*:1])C(=O)[*:2])N1C1OC(CO)C(O)C(O)C1O; ξEnduracididine(βξ-OH,4'ξ) = N=C1NCC(C(O)C(N)C(=O)O)N1; ξCha(3ξ-Me) = CC(C1CCCCC1)C(N)C(=O)O; Cha = N[CH](CC1CCCCC1)C(=O)O

What was measured:
Assay in all cases: in vitro antibacterial evaluation, MIC by broth dilution
Type in all cases: cell-based
[1] = test system: Enterococcus sp.; details: broth dilution, 18 hours at 35° C.; for MIC Enterococcus faecalis (GC 2242): strain GC 2242; for MIC Enterococcus faecalis (GC 2691): strain GC 2691; for MIC Enterococcus faecalis (GC 3059): strain GC 3059
Experimental: (§1) Methods for in vitro Antibacterial Evaluation (Table 1)
(§2) The minimum inhibitory concentration (MIC), the lowest concentration of the antibiotic which inhibits growth of the test organism, is determined by the broth dilution method using Muller-Hinton II […] (Baltimore Biological Laboratories) following the recommendations of the National Committee for Clinical Laboratory Standards [Methods for dilution antimicrobial susceptibility tests for bacteria that grow aerobically, approved standard M7-A2, National Committee for Clinical Laboratory Standards, Villanova, Pa.].
(§3) An inoculum level of 5×10^5 CFU/mL, and a range of antibiotic concentrations (64-0.06 μg/mL) is used. […] The test organisms include a spectrum of Gram-positive bacteria comprised of Staphylococcus sp., Streptococcus sp. and Enterococcus sp. These organisms include recent clinical isolates that are resistant to methicillin, penicillin and/or vancomycin.

[2] = test system: Staphylococcus sp.; details: broth dilution, 18 hours at 35° C.; for MIC Staphylococcus aureus (ATCC 29213): strain ATCC 29213; for MIC Staphylococcus aureus (GC 1131): strain GC 1131; for MIC Staphylococcus aureus (GC 3051): strain GC 3051; for MIC Staphylococcus aureus (GC 3053): strain GC 3053; for MIC Staphylococcus aureus (GC 4541): strain GC 4541; for MIC Staphylococcus aureus (GC 4542): strain GC 4542; for MIC Staphylococcus aureus-SMITH (GC 4543): strain GC 4543; for MIC Staphylococcus aureus (GC 4544): strain GC 4544; for MIC Staphylococcus aureus (GC 4545): strain GC 4545; for MIC Staphylococcus haemolyticus (GC 4546): strain GC 4546; for MIC Coagulase Negative Staphylococcus (GC 4547): strain GC 4547; for MIC Coagulase Negative Staphylococcus (GC 4548): strain GC 4548; for MIC Coagulase Negative Staphylococcus (GC 4549): strain GC 4549; for MIC Coagulase Negative Staphylococcus (GC 4551): strain GC 4551
Experimental: as §1, §2, §3

[3] = test system: Streptococcus sp.; details: broth dilution, 18 hours at 35° C.; for MIC Streptococcus pneumoniae (ATCC 6301): strain ATCC 6301; for MIC Streptococcus pneumoniae (GC 1894): strain GC 1894; for MIC Streptococcus pyogenes (GC 4563): strain GC 4563; for MIC Streptococcus agalactiae (GC 4564): strain GC 4564; for MIC Streptococcus pneumoniae (GC 4565): strain GC 4565
Experimental: as §1, §2, §3

[4] = test system: Escherichia coli; details: broth dilution, 18 hours at 35° C.; for MIC Escherichia coli (ATCC 25922): strain ATCC 25922; for MIC Escherichia coli (GC 4559): strain GC 4559; for MIC Escherichia coli (GC 4560): strain GC 4560
Procedure, shortened: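 MIC is the lowest antibiotic concentration (tested 64-0.06 μg/mL) preventing growth of a 5×10^5 CFU/mL inoculum. Determined by broth dilution in Mueller-Hinton II medium following NCCLS standard M7-A2.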

[5] = Enterococcus faecalis (ATCC 29212)
[6] = Enterococcus faecalis (GC 4552)
[7] = Enterococcus faecalis (GC 4553)
[8] = Enterococcus faecalis (GC 4554)
[9] = Enterococcus faecalis (GC 6189)

MIC Enterococcus avium (GC 4558) ([1]; Enterococcus avium (GC 4558)): 4 µg/mL (≈ 4.14 µM)
MIC Enterococcus faecalis (ATCC 29212) [1, 5]: 8 µg/mL (≈ 8.27 µM)
MIC Enterococcus faecalis (GC 4552) [1, 6]: 8 µg/mL (≈ 8.27 µM)
MIC Enterococcus faecalis (GC 4553) [1, 7]: 4 µg/mL (≈ 4.14 µM)
MIC Enterococcus faecalis (GC 4554) [1, 8]: 16 µg/mL (≈ 16.5 µM)
MIC Enterococcus faecalis (GC 6189) [1, 9]: 4 µg/mL (≈ 4.14 µM)
MIC Enterococcus faecium (GC 2243) ([1]; Enterococcus faecium (GC 2243)): 2 µg/mL (≈ 2.07 µM)
MIC Enterococcus faecium (GC 4556) ([1]; Enterococcus faecium (GC 4556)): 8 µg/mL (≈ 8.27 µM)
MIC Enterococcus faecium (GC 4557) ([1]; Enterococcus faecium (GC 4557)): 2 µg/mL (≈ 2.07 µM)
MIC Enterococcus faecalis (ATCC 29212) ([1]; strain ATCC 29212): 8 µg/mL (≈ 8.27 µM)
MIC Enterococcus faecalis (GC 2242) [1]: 8 µg/mL (≈ 8.27 µM)
MIC Enterococcus faecium (GC 2243) ([1]; strain GC 2243): 2 µg/mL (≈ 2.07 µM)
MIC Enterococcus faecalis (GC 2691) [1]: 8 µg/mL (≈ 8.27 µM)
MIC Enterococcus faecalis (GC 3059) [1]: 8 µg/mL (≈ 8.27 µM)
MIC Enterococcus faecalis (GC 4552) ([1]; strain GC 4552): 8 µg/mL (≈ 8.27 µM)
MIC Enterococcus faecalis (GC 4553) ([1]; strain GC 4553): 4 µg/mL (≈ 4.14 µM)
MIC Enterococcus faecalis (GC 4554) ([1]; strain GC 4554): 16 µg/mL (≈ 16.5 µM)
MIC Enterococcus faecium (GC 4556) ([1]; strain GC 4556): 8 µg/mL (≈ 8.27 µM)
MIC Enterococcus faecium (GC 4557) ([1]; strain GC 4557): 2 µg/mL (≈ 2.07 µM)
MIC Enterococcus avium (GC 4558) ([1]; strain GC 4558): 4 µg/mL (≈ 4.14 µM)
MIC Enterococcus faecalis (GC 6189) ([1]; strain GC 6189): 4 µg/mL (≈ 4.14 µM)
MIC Staphylococcus aureus (ATCC 29213) [2]: 2 µg/mL (≈ 2.07 µM)
MIC Staphylococcus aureus (GC 1131) [2]: 4 µg/mL (≈ 4.14 µM)
MIC Staphylococcus aureus (GC 3051) [2]: 2 µg/mL (≈ 2.07 µM)
MIC Staphylococcus aureus (GC 3053) [2]: 4 µg/mL (≈ 4.14 µM)
MIC Staphylococcus aureus (GC 4541) [2]: 4 µg/mL (≈ 4.14 µM)
MIC Staphylococcus aureus (GC 4542) [2]: 2 µg/mL (≈ 2.07 µM)
MIC Staphylococcus aureus-SMITH (GC 4543) [2]: 2 µg/mL (≈ 2.07 µM)
MIC Staphylococcus aureus (GC 4544) [2]: 4 µg/mL (≈ 4.14 µM)
MIC Staphylococcus aureus (GC 4545) [2]: 2 µg/mL (≈ 2.07 µM)
MIC Coagulase Negative Staphylococcus (GC 4547) [2]: 2 µg/mL (≈ 2.07 µM)
MIC Coagulase Negative Staphylococcus (GC 4548) [2]: 2 µg/mL (≈ 2.07 µM)
MIC Coagulase Negative Staphylococcus (GC 4549) [2]: 1 µg/mL (≈ 1.03 µM)
MIC Coagulase Negative Staphylococcus (GC 4551) [2]: 2 µg/mL (≈ 2.07 µM)
MIC Streptococcus pneumoniae (ATCC 6301) [3]: 1 µg/mL (≈ 1.03 µM)
MIC Streptococcus pneumoniae (GC 1894) [3]: 1 µg/mL (≈ 1.03 µM)
MIC Streptococcus pyogenes (GC 4563) [3]: 1 µg/mL (≈ 1.03 µM)
MIC Streptococcus agalactiae (GC 4564) [3]: 1 µg/mL (≈ 1.03 µM)
MIC Streptococcus pneumoniae (GC 4565) [3]: 4 µg/mL (≈ 4.14 µM)
MIC Escherichia coli (ATCC 25922) [4]: 128 µg/mL (≈ 132 µM)
MIC Escherichia coli (GC 4559) [4]: 128 µg/mL (≈ 132 µM)
MIC Escherichia coli (GC 4560) [4]: 4 µg/mL (≈ 4.14 µM)
SMILES: CC(C1CCCCC1)C1NC(=O)CNC(=O)C(CO)NC(=O)C(C(O)C2CNC(=N)N2C2OC(CO)C(O)C(O)C2O)NC(=O)C(C(O)C2CNC(=N)N2)NC(=O)C(CC2CCCCC2)NC1=O (stereo not drawn) [Example 53, Cyclo[3-cyclohexylalanyl-3-(2-iminoimidazolidin-4-yl)seryl-3-(3-hexopyranosyl-2-iminoimidazolidin-4-yl)serylserylglycyl-3-cyclohexyl-2-aminobutanyl]] (cyclo(G[ξCha(3ξ-Me)][Cha][ξEnduracididine(βξ-OH,4'ξ)][X1]S); configuration not given here)
MIC Staphylococcus haemolyticus (GC 4546) [2]: 1 µg/mL (≈ 1.03 µM)

MIC Enterococcus avium (GC 4558) ([1]; Enterococcus avium (GC 4558)): >128 µg/mL
MIC Enterococcus faecalis (ATCC 29212) [1, 5]: >128 µg/mL
MIC Enterococcus faecalis (GC 4552) [1, 6]: >128 µg/mL
MIC Enterococcus faecalis (GC 4553) [1, 7]: >128 µg/mL
MIC Enterococcus faecalis (GC 4554) [1, 8]: >128 µg/mL
MIC Enterococcus faecalis (GC 6189) [1, 9]: >128 µg/mL
MIC Enterococcus faecium (GC 2243) ([1]; Enterococcus faecium (GC 2243)): >128 µg/mL
MIC Enterococcus faecium (GC 4556) ([1]; Enterococcus faecium (GC 4556)): >128 µg/mL
MIC Enterococcus faecium (GC 4557) ([1]; Enterococcus faecium (GC 4557)): >128 µg/mL
MIC Enterococcus faecalis (ATCC 29212) ([1]; strain ATCC 29212): >128 µg/mL
MIC Enterococcus faecalis (GC 2242) [1]: >128 µg/mL
MIC Enterococcus faecium (GC 2243) ([1]; strain GC 2243): >128 µg/mL
MIC Enterococcus faecalis (GC 2691) [1]: >128 µg/mL
MIC Enterococcus faecalis (GC 3059) [1]: >128 µg/mL
MIC Enterococcus faecalis (GC 4552) ([1]; strain GC 4552): >128 µg/mL
MIC Enterococcus faecalis (GC 4553) ([1]; strain GC 4553): >128 µg/mL
MIC Enterococcus faecalis (GC 4554) ([1]; strain GC 4554): >128 µg/mL
MIC Enterococcus faecium (GC 4556) ([1]; strain GC 4556): >128 µg/mL
MIC Enterococcus faecium (GC 4557) ([1]; strain GC 4557): >128 µg/mL
MIC Enterococcus avium (GC 4558) ([1]; strain GC 4558): >128 µg/mL
MIC Enterococcus faecalis (GC 6189) ([1]; strain GC 6189): >128 µg/mL
MIC Staphylococcus aureus (ATCC 29213) [2]: >128 µg/mL
MIC Staphylococcus aureus (GC 1131) [2]: >128 µg/mL
MIC Staphylococcus aureus (GC 3051) [2]: >128 µg/mL
MIC Staphylococcus aureus (GC 3053) [2]: >128 µg/mL
MIC Staphylococcus aureus (GC 4541) [2]: >128 µg/mL
MIC Staphylococcus aureus (GC 4542) [2]: >128 µg/mL
MIC Staphylococcus aureus-SMITH (GC 4543) [2]: >128 µg/mL
MIC Staphylococcus aureus (GC 4544) [2]: >128 µg/mL
MIC Staphylococcus aureus (GC 4545) [2]: >128 µg/mL
MIC Coagulase Negative Staphylococcus (GC 4547) [2]: >128 µg/mL
MIC Coagulase Negative Staphylococcus (GC 4548) [2]: >128 µg/mL
MIC Coagulase Negative Staphylococcus (GC 4549) [2]: >128 µg/mL
MIC Coagulase Negative Staphylococcus (GC 4551) [2]: >128 µg/mL
MIC Streptococcus pneumoniae (ATCC 6301) [3]: 64 µg/mL (≈ 49 µM)
MIC Streptococcus pneumoniae (GC 1894) [3]: 32 µg/mL (≈ 24.5 µM)
MIC Streptococcus pyogenes (GC 4563) [3]: 64 µg/mL (≈ 49 µM)
MIC Streptococcus agalactiae (GC 4564) [3]: 64 µg/mL (≈ 49 µM)
MIC Streptococcus pneumoniae (GC 4565) [3]: 64 µg/mL (≈ 49 µM)
MIC Escherichia coli (ATCC 25922) [4]: >128 µg/mL
MIC Escherichia coli (GC 4559) [4]: >128 µg/mL
MIC Escherichia coli (GC 4560) [4]: >128 µg/mL
SMILES: CC(C1CCCCC1)C1NC(=O)CNC(=O)C(CO)NC(=O)C(C(O)C2CNC(=N)N2C2OC(CO)C(O)C(O)C2O)NC(=O)C(C(O)C2CNC(=N)N2)NC(=O)C(CC2CCC(OC3OC(CO)C(OC4OC(CO)C(O)C(O)C4O)C(O)C3O)CC2)NC1=O (centres unmarked) [Example 53a, Cyclo[3-[4-[(4-O-hexopyranosylhexopyranosyl)oxy]cyclohexyl]alanyl-3-(2-iminoimidazolidin-4-yl)seryl-3-(3-hexopyranosyl-2-iminoimidazolidin-4-yl)serylserylglycyl-3-cyclohexyl-2-aminobutanoyl]]
MIC Staphylococcus haemolyticus (GC 4546) [2]: >128 µg/mL
